The source of these data is patent publication US9999619B2, “Piperidin-4-yl azetidine derivatives as JAK1 inhibitors” (Incyte Corporation, priority 2010, dated 2018).

Holding throughout (type): biochemical
In experiment [1] the target is human JAK1 (a.a. 837-1142). Nature of the experiment: In vitro JAK kinase assay (HTRF, phosphorylation of a biotinylated peptide), JAK1. As to conditions: ratio of JAK2 IC50 to JAK1 IC50, measured at 1 mM ATP. In outline: (§1)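 Phosphorylation of a biotinylated peptide by purified His-tagged JAK catalytic domains (insect-cell baculovirus expression) ran 1 hr at room temperature. After stopping with EDTA, Eu-Py20 and SA-APC were bound for 40 minutes and HTRF measured.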

The target of experiment [2] is human JAK1 (a.a. 837-1142) (Homo sapiens, UniProt P23458). The description is as above. Conditions: measured at 1 mM ATP. In outline:
as §1

Another experiment has as its target Jak2 (a.a. 828-1132) (Homo sapiens (Human), UniProt O60674). In words: In vitro JAK kinase assay (HTRF, phosphorylation of a biotinylated peptide), JAK2. As to conditions: measured at 1 mM ATP. In outline: as §1
For orientation: TR-FRET usually uses a lanthanide donor and a delayed reading to cut background.

A value given as a limit tells only on which side of the number the result lay.

Chain of Jak2 (a.a. 828-1132) (O60674 828-1132): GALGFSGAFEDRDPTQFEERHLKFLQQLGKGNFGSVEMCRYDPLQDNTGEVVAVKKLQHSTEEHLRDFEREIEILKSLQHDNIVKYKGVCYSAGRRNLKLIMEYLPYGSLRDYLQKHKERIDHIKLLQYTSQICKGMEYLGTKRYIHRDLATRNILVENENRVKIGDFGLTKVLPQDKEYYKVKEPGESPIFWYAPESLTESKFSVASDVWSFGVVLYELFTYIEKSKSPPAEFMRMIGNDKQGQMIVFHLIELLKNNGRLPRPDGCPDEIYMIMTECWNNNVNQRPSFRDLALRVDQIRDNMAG

As usually defined, the IC50 is the concentration that inhibits the measured activity by half. Low values mean greater potency, high ones weaker potency. As to `COc1nc(CN2CCC(N3CC(CC#N)(n4cc(-c5ncnc6[nH]ccc56)cn4)C3)CC2)ccc1C#N` [Example 224, 6-[(4-{3-(cyanomethyl)-3-[4-(7H-pyrrolo[2,3-d]pyrimidin-4-yl)-1H-pyrazol-1-yl]azetidin-1-yl}piperidin-1-yl)methyl]-2-methoxynicotinonitrile], in experiment [1], the “IC50 Ratio JAK2/JAK1” value is given as 2.4. Moreover, the IC50 lay in the range of 20 to 30 nM in experiment [2] and 50 to 100 nM against Jak2 (a.a. 828-1132).
`Cc1ccccc1NC(=O)N1CCC(N2CC(CC#N)(n3cc(-c4ncnc5[nH]ccc45)cn3)C2)CC1` [Example 185, 4-{3-(cyanomethyl)-3-[4-(7H-pyrrolo[2,3-d]pyrimidin-4-yl)-1H-pyrazol-1-yl]azetidin-1-yl}-N-(2-methylphenyl)piperidine-1-carboxamide]: in experiment [1], the “IC50 Ratio JAK2/JAK1” value was found to be 9.5. Besides, the figures for the IC50 (in experiment [2]; against Jak2 (a.a. 828-1132)) were at most 5 nM and 10 to 50 nM, respectively.
Take `N#CCC1(n2cc(-c3ccnc4[nH]ccc34)cn2)CN(C2CCN(C(=O)c3ccc(O)c(F)c3)CC2)C1` [Example 296, {1-[1-(3-fluoro-4-hydroxybenzoyl)piperidin-4-yl]-3-[4-(1H-pyrrolo[2,3-b]pyridin-4-yl)-1H-pyrazol-1-yl]azetidin-3-yl}acetonitrile]: the “IC50 Ratio JAK2/JAK1” value in experiment [1] was 4.6. Further, the IC50 was at most 5 nM in experiment [2] and 10 to 50 nM against Jak2 (a.a. 828-1132).
For the molecule `COc1cc(F)cc(C(=O)N2CCC(N3CC(CC#N)(n4cc(-c5ncnc6[nH]ccc56)cn4)C3)CC2)c1` [Example 36, {1-[1-(3-fluoro-5-methoxybenzoyl)piperidin-4-yl]-3-[4-(7H-pyrrolo[2,3-d]pyrimidin-4-yl)-1H-pyrazol-1-yl]azetidin-3-yl}acetonitrile], in experiment [1], the “IC50 Ratio JAK2/JAK1” value is 2.3. Besides, the IC50 in experiment [2] is at most 5 nM; against Jak2 (a.a. 828-1132), at most 10 nM.
For the molecule `N#CCC1(n2cc(-c3ncnc4[nH]ccc34)cn2)CN(C2CCN(C(=O)c3c(F)cncc3F)CC2)C1` [Example 61, {1-[1-(3,5-difluoroisonicotinoyl)piperidin-4-yl]-3-[4-(7H-pyrrolo[2,3-d]pyrimidin-4-yl)-1H-pyrazol-1-yl]azetidin-3-yl}acetonitrile], the “IC50 Ratio JAK2/JAK1” value in experiment [1] is recorded as 4.2. The IC50 was 5 to 20 nM in experiment [2] and 10 to 50 nM at Jak2 (a.a. 828-1132).
`COc1cc(C(=O)N2CCC(N3CC(CC#N)(n4cc(-c5ncnc6[nH]ccc56)cn4)C3)CC2)cc(Cl)n1` [Example 37, {1-[1-(2-chloro-6-methoxyisonicotinoyl)piperidin-4-yl]-3-[4-(7H-pyrrolo[2,3-d]pyrimidin-4-yl)-1H-pyrazol-1-yl]azetidin-3-yl}acetonitrile]: in experiment [1], the “IC50 Ratio JAK2/JAK1” value is listed as 2.1. Further, the values for the IC50 (in experiment [2]; against Jak2 (a.a. 828-1132)) were at most 5 nM and at most 10 nM, respectively.
Take `COc1c(F)c(F)cc(C(=O)N2CCC(N3CC(CC#N)(n4cc(-c5ncnc6[nH]ccc56)cn4)C3)CC2)c1F` [Example 32, {3-[4-(7H-pyrrolo[2,3-d]pyrimidin-4-yl)-1H-pyrazol-1-yl]-1-[1-(2,4,5-trifluoro-3-methoxybenzoyl)piperidin-4-yl]azetidin-3-yl}acetonitrile]: the “IC50 Ratio JAK2/JAK1” value in experiment [1] was found to be 4.4. For the same molecule, the IC50 was at most 5 nM in experiment [2] and 10 to 50 nM against Jak2 (a.a. 828-1132).
The corresponding values for `N#CCC1(n2cc(-c3ncnc4[nH]ccc34)cn2)CN(C2CCN(C(=O)c3sc4cccc(F)c4c3Cl)CC2)C1` [Example 92, {1-{1-[(3-chloro-4-fluoro-1-benzothien-2-yl)carbonyl]piperidin-4-yl}-3-[4-(7H-pyrrolo[2,3-d]pyrimidin-4-yl)-1H-pyrazol-1-yl]azetidin-3-yl}acetonitrile] are 2.8, at most 5 nM and at most 10 nM.
Take `N#CCC1(n2cc(-c3ncnc4[nH]ccc34)cn2)CN(C2CCN(C(=O)c3c(F)cccc3F)CC2)C1` [Example 44, {1-[1-(2,6-difluorobenzoyl)piperidin-4-yl]-3-[4-(7H-pyrrolo[2,3-d]pyrimidin-4-yl)-1H-pyrazol-1-yl]azetidin-3-yl}acetonitrile]: in experiment [1], the “IC50 Ratio JAK2/JAK1” value turned out to be 2.9. Further, the results for the IC50 (in experiment [2]; at Jak2 (a.a. 828-1132)) were at most 5 nM and at most 10 nM, respectively.
With `N#CCC1(n2cc(-c3ncnc4[nH]ccc34)cn2)CN(C2CCN(C(=O)c3cnc4ccccc4c3)CC2)C1` [Example 88, {3-[4-(7H-pyrrolo[2,3-d]pyrimidin-4-yl)-1H-pyrazol-1-yl]-1-[1-(quinolin-3-ylcarbonyl)piperidin-4-yl]azetidin-3-yl}acetonitrile], the “IC50 Ratio JAK2/JAK1” value in experiment [1] was found to be 0.9. In addition, the IC50 in experiment [2] is 5 to 20 nM; against Jak2 (a.a. 828-1132), at most 10 nM.
The corresponding values for `N#CCC1(n2cc(-c3ncnc4[nH]ccc34)cn2)CN(C2CCN(C(=O)c3ccccc3F)CC2)C1` [Example 67, {1-[1-(2-fluorobenzoyl)piperidin-4-yl]-3-[4-(7H-pyrrolo[2,3-d]pyrimidin-4-yl)-1H-pyrazol-1-yl]azetidin-3-yl}acetonitrile] are 4.7, at most 5 nM and at most 10 nM.
The corresponding values for `N#CCC1(n2cc(-c3c(F)cnc4[nH]ccc34)cn2)CN(C2CCN(C(=O)c3c(F)cncc3F)CC2)C1` [Example 321, {1-[1-(3,5-difluoroisonicotinoyl)piperidin-4-yl]-3-[4-(5-fluoro-1H-pyrrolo[2,3-b]pyridin-4-yl)-1H-pyrazol-1-yl]azetidin-3-yl}acetonitrile] are 3.0, at most 5 nM and 10 to 50 nM.
For `N#CCC1(n2cc(-c3ncnc4[nH]ccc34)cn2)CN(C2CCN(C(=O)C3CCC(c4ccc(Cl)cc4)CC3)CC2)C1` (stereo not drawn) [Example 105, {1-(1-{[4-(4-chlorophenyl)cyclohexyl]carbonyl}piperidin-4-yl)-3-[4-(7H-pyrrolo[2,3-d]pyrimidin-4-yl)-1H-pyrazol-1-yl]azetidin-3-yl}acetonitrile], the “IC50 Ratio JAK2/JAK1” value in experiment [1] is listed as 7.2. Besides, the IC50 in experiment [2] was 5 to 20 nM; against Jak2 (a.a. 828-1132), over 100 nM.
For `N#CCC1(n2ccc(-c3ncnc4[nH]ccc34)c2)CN(C2CCN(C(=O)c3cccc(F)c3F)CC2)C1` [Example 276, {1-[1-(2,3-difluorobenzoyl)piperidin-4-yl]-3-[3-(7H-pyrrolo[2,3-d]pyrimidin-4-yl)-1H-pyrrol-1-yl]azetidin-3-yl}acetonitrile] the same measures were 4.0, at most 5 nM and at most 10 nM.
The corresponding values for `COc1ccc(C(=O)N2CCC(N3CC(CC#N)(n4cc(-c5ncnc6[nH]ccc56)cn4)C3)CC2)cc1C#N` [Example 55, 5-[(4-{3-(cyanomethyl)-3-[4-(7H-pyrrolo[2,3-d]pyrimidin-4-yl)-1H-pyrazol-1-yl]azetidin-1-yl}piperidin-1-yl)carbonyl]-2-methoxybenzonitrile] are 7.5, at most 5 nM and 10 to 50 nM.
For `N#CCC1(n2cc(-c3ncnc4[nH]ccc34)cn2)CN(C2CCN(C(=O)c3ccc(-c4ccc(C#N)cc4)c(F)c3)CC2)C1` [Example 118, 4′-[(4-{3-(cyanomethyl)-3-[4-(7H-pyrrolo[2,3-d]pyrimidin-4-yl)-1H-pyrazol-1-yl]azetidin-1-yl}piperidin-1-yl)carbonyl]-2′-fluorobiphenyl-4-carbonitrile] the same measures were 21.5, at most 5 nM and 10 to 50 nM.
Consider `N#CCC1(n2ccc(-c3ncnc4[nH]ccc34)c2)CN(C2CCN(C(=O)c3cc(F)ccc3C(F)(F)F)CC2)C1` [Example 266, {1-{1-[5-fluoro-2-(trifluoromethyl)benzoyl]piperidin-4-yl}-3-[3-(7H-pyrrolo[2,3-d]pyrimidin-4-yl)-1H-pyrrol-1-yl]azetidin-3-yl}acetonitrile], for which, in experiment [1], the “IC50 Ratio JAK2/JAK1” value was 6.6. In addition, the results for the IC50 (in experiment [2]; against Jak2 (a.a. 828-1132)) were 5 to 20 nM and 50 to 100 nM, respectively.
As for `N#CCC1(n2cc(-c3ncnc4[nH]ccc34)cn2)CN(C2CCN(C(=O)c3cc(F)c(F)c(F)c3F)CC2)C1` [Example 54, {3-[4-(7H-pyrrolo[2,3-d]pyrimidin-4-yl)-1H-pyrazol-1-yl]-1-[1-(2,3,4,5-tetrafluorobenzoyl)piperidin-4-yl]azetidin-3-yl}acetonitrile], the “IC50 Ratio JAK2/JAK1” value in experiment [1] was 9.1. Moreover, the values for the IC50 (in experiment [2]; against Jak2 (a.a. 828-1132)) were 5 to 20 nM and 50 to 100 nM, respectively.
For `N#CCC1(n2cc(-c3ncnc4[nH]ccc34)cn2)CN(C2CCN(C(=O)c3cc(F)c(F)c(F)c3)CC2)C1` [Example 4, {3-[4-(7H-pyrrolo[2,3-d]pyrimidin-4-yl)-1H-pyrazol-1-yl]-1-[1-(3,4,5-trifluorobenzoyl)piperidin-4-yl]azetidin-3-yl}acetonitrile] the same measures were 10.2, 5 to 20 nM and 50 to 100 nM.
For `N#CCC1(n2cc(-c3ncnc4[nH]ccc34)cn2)CN(C2CCN(C(=O)Nc3ncc(F)cc3F)CC2)C1` [Example 203, 4-{3-(cyanomethyl)-3-[4-(7H-pyrrolo[2,3-d]pyrimidin-4-yl)-1H-pyrazol-1-yl]azetidin-1-yl}-N-(3,5-difluoropyridin-2-yl)piperidine-1-carboxamide] the same measures were 8.6, 5 to 20 nM and 50 to 100 nM.
As to `N#CCC1(n2ccc(-c3ncnc4[nH]ccc34)c2)CN(C2CCN(C(=O)c3ccc(C#N)cc3F)CC2)C1` [Example 264, 4-[(4-{3-(cyanomethyl)-3-[3-(7H-pyrrolo[2,3-d]pyrimidin-4-yl)-1H-pyrrol-1-yl]azetidin-1-yl}piperidin-1-yl)carbonyl]-3-fluorobenzonitrile], in experiment [1], the “IC50 Ratio JAK2/JAK1” value is 9.5. The IC50 was in the range of 5 to 20 nM in experiment [2] and 50 to 100 nM against Jak2 (a.a. 828-1132).
